According to US20260209193A1, “NOVEL INHIBITORS OF DNA DAMAGE RESPONSES FOR CANCER THERAPY” (The Regents of the University of California, priority 2022, published 2026):

What was measured:
Type in all cases: cell-based
PARP1 = biological target: T1, PARP1 (Homo sapiens, UniProt P09874); test: PARP1 trapping, chromatin fractionation (chromatin-bound fraction); conditions: PC3 cells
T1 construct: endogenous in cells; host or cells: PC3
Method in brief: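 PARP1 trapping was measured as PARP1 in the chromatin-bound fraction across six lines: SUM149PT-BRCA1mut/BRCA1rev (breast), UWB1.289 BRCA1-null and BRCA1-restored (ovarian), HR-deficient C4-2B/MR (Rad51 mutant) and HR-proficient PC3 (prostate).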

[1] = test system: PC3 and SUM149PT-BRCA1mut cells; test: CCK8 cell killing screen of JC099 analogs
Excerpt: Structure optimization represents a critical step towards identifying candidate compounds for preclinical and clinical development and contributes to structure-function analysis. […] Cell killing potency was detected by a CCK8 assay in prostate and breast cancer cells. […]
The cell killing potency was detected by a CCK8 assay in prostate and breast cancer cells.

ATR = biological target: T2, ATR (Homo sapiens, UniProt Q13535); test: ATR-mediated signaling: phosphorylation of Rad17 Ser 645 and CHK1 Ser 345 in cells; conditions: compared to JC099
T2 construct: endogenous in cells; host or cells: PC3, C4-2B/MR, SUM149PT-BRCA1rev, UWB1.289+BRCA1, MDA-MB-231
T2 sequence (Q13535 whole entry): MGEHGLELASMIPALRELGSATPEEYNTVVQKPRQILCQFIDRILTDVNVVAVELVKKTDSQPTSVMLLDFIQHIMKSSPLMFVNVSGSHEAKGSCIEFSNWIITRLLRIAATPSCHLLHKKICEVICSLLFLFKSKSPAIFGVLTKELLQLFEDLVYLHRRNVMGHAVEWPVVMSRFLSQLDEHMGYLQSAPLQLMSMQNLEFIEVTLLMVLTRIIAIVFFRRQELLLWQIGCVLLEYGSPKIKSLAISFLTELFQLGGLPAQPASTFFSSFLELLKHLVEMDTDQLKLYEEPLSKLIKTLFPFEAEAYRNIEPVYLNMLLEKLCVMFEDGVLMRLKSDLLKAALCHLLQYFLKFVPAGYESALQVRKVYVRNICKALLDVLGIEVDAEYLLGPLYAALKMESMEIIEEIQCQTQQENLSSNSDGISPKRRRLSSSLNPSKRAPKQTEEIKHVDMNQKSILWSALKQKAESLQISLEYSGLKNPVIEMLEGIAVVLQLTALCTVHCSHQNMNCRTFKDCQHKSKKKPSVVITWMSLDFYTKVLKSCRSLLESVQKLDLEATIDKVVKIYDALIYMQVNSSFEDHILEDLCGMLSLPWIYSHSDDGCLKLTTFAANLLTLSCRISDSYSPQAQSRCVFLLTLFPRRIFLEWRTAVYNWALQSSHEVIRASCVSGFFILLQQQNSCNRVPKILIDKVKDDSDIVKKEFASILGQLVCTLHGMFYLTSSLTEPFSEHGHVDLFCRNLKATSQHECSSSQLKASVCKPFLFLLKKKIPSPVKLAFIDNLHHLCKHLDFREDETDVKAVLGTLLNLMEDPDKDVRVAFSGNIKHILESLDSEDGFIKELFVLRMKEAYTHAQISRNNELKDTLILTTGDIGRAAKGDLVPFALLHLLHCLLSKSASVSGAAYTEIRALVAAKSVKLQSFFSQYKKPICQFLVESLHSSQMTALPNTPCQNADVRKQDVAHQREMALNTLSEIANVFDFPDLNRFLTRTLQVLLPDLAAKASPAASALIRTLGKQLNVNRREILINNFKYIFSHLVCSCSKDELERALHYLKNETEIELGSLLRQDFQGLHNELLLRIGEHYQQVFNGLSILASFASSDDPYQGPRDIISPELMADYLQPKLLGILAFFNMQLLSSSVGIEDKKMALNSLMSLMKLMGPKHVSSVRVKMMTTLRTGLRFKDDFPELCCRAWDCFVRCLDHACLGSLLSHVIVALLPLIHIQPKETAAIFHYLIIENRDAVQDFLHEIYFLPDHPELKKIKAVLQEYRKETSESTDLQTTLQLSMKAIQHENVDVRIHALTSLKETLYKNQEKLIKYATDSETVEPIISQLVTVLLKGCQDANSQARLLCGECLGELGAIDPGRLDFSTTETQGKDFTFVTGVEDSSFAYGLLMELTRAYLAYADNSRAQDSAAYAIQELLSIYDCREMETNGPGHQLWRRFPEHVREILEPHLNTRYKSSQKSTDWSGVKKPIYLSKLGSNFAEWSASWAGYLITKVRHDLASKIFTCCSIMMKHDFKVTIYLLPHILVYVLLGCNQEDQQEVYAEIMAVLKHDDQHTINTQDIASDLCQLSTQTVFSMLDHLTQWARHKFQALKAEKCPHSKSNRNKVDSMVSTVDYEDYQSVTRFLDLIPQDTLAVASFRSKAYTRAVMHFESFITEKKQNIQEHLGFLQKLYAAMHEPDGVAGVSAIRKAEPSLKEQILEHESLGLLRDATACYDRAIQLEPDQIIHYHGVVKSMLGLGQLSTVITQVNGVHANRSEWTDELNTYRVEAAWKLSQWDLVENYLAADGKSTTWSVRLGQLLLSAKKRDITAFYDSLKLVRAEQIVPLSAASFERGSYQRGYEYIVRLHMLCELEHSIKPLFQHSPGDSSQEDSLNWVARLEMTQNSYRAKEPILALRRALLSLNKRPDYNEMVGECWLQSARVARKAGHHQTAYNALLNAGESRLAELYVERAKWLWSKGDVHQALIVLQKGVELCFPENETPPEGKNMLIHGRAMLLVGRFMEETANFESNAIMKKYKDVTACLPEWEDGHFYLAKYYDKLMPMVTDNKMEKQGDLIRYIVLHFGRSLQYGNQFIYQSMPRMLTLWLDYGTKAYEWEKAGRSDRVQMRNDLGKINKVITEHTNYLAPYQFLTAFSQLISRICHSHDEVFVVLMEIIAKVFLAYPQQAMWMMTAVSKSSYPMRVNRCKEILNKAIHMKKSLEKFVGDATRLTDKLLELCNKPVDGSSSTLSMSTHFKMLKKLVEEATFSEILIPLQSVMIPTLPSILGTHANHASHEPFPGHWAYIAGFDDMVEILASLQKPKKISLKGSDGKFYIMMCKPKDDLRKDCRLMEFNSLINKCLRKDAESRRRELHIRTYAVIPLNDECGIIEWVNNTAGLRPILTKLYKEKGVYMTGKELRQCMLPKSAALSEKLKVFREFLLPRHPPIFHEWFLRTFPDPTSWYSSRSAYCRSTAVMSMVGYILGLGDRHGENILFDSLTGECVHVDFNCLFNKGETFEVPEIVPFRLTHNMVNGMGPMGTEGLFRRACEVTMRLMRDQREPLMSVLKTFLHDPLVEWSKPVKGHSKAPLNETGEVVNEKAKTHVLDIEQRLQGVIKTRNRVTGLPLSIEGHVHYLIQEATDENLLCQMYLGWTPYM
T2 sequence (Q8WXE1 whole entry partner): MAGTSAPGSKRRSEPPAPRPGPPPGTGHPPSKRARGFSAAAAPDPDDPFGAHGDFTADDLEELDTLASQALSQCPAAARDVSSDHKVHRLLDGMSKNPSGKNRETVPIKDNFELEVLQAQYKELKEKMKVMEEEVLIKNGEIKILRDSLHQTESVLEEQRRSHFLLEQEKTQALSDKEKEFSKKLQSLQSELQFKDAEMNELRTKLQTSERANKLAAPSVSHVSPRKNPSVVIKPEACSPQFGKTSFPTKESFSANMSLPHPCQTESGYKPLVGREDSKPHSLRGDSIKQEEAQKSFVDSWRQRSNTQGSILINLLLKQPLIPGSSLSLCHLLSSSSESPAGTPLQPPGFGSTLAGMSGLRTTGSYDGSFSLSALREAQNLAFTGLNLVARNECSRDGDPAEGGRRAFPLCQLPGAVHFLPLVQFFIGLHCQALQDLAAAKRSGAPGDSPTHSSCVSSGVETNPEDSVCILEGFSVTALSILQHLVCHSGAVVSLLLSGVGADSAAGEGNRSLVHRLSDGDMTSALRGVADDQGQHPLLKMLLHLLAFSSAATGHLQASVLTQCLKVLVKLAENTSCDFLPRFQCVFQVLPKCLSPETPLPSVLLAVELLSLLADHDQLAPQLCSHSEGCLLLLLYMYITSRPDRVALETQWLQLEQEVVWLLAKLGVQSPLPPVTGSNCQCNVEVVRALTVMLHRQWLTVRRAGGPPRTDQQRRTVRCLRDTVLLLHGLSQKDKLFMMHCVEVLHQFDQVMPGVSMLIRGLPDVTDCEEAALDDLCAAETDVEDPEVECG
Protocol: PARP inhibitor-resistant cells are increasingly dependent on ATR for survival, and ATR inhibition disrupts restored HR and fork protection pathways in PARP inhibitor resistant BRCA-deficient cancer cells. For ATR kinase in vitro assays, ATR was immunoprecipitated with 3 μg of anti-ATR antibody (Bethyl Laboratories, A300-137A) from 1 mg of cell lysate. […] The IC50 was determined by the enzyme profiling service of Eurofins Cerep (France). […] The phosphorylation of CHK1 at Ser 345 sites was used as a bio-marker of ATR-mediated signaling pathway. The phosphorylation of Rad17 at Ser 645, which is a substrate of ATR, was also examined.
ATR inhibition was assessed in C4-2B/MR cells. Considering ATM is a homologous protein of ATR, we also detected the effect of JC046 analogs on the phosphorylation of KAP1 at Ser 824 and CHK2 at Thr 68 sites, which were used as markers of ATM signaling pathway.

T1 sequence (P09874 whole entry, species assumed): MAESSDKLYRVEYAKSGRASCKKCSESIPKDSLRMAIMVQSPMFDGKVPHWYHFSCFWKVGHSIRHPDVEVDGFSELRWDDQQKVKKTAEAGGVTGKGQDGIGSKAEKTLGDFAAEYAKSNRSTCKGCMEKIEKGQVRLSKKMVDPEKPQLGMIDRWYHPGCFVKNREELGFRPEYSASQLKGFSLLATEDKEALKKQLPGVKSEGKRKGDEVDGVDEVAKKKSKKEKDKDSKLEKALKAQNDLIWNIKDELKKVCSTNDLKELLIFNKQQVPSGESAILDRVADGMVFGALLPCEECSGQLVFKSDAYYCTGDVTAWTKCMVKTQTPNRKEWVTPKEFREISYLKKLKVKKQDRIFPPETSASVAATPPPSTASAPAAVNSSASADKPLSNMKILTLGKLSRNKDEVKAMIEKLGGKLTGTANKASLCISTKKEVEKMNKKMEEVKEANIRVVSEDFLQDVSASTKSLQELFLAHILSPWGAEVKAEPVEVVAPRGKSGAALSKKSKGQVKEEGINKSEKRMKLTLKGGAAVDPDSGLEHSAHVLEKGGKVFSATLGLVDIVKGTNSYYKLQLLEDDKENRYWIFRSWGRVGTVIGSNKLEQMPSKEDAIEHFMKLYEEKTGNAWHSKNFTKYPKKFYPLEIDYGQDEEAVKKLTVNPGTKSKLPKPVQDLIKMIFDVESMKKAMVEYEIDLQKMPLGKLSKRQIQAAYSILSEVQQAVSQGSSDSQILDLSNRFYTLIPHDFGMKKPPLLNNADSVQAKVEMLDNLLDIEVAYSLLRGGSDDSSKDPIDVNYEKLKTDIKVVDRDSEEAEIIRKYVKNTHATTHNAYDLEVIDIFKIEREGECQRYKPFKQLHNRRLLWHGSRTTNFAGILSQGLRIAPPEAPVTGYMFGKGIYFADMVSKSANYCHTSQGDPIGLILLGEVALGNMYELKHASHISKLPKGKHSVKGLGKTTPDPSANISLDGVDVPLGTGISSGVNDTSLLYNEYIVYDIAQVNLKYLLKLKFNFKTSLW

| PARP1 trapped on DNA lesions (PARP1; 0.3 μM) | PARP1-trapping potency relative to JC099 (PARP1 in the chromatin-bound fraction) (PARP1) | ATR inhibition potency relative to JC099 (OLA- or UV-induced phosphorylation of Rad17 and CHK1) (ATR) | Compound | cell killing potency relative to JC099 [1] |
| --- | --- | --- | --- | --- |
| trapped |  |  | O=C(CN1CCCC1)Nc1ccc(C(=O)NC2C/C(=C\c3ccc(F)c(F)c3)C(=O)/C(=C/c3ccc(F)c(F)c3)C2)cc1 (stereo not drawn) [JCS046, N-(3,5-bis((E)-3,4-difluorobenzylidene)-4-oxocyclohexyl)-4-(2-(pyrrolidin-1-yl)acetamido)benzamide] | higher cell killing potency than JC099 |
|  |  |  | CN1CCN(c2ccc(C(=O)NC3C/C(=C\c4ccc(F)c(F)c4)C(=O)/C(=C/c4ccc(F)c(F)c4)C3)cc2)CC1 (stereo not drawn) [JCS071, N-(3,5-Bis((E)-3,4-difluorobenzylidene)-4-oxocyclohexyl)-4-(4-methylpiperazin-1-yl)benzamide] | higher cell killing potency than JC099 |
|  |  | greater ATR inhibition potential | O=C1/C(=C/c2ccc(F)c(F)c2)CC(NC(=O)c2ccc(OCCN3CCC(N4CCCC4)CC3)cc2)C/C1=C\c1ccc(F)c(F)c1 (stereo not drawn) [JCS080, N-(3,5-bis((E)-3,4-difluorobenzylidene)-4-oxocyclohexyl)-4-(2-(4-(pyrrolidin-1-yl)piperidin-1-yl)ethoxy)benzamide] | higher cell killing potency than JC099 |
|  | higher potency in PARP1-trapping |  | N#Cc1cc(NCCN2CCCC2)ccc1C(=O)NC1C/C(=C\c2ccc(F)c(F)c2)C(=O)/C(=C/c2ccc(F)c(F)c2)C1 (stereo not drawn) [JCS091, N-(3,5-Bis((E)-3,4-difluorobenzylidene)-4-oxocyclohexyl)-2-cyano-4-((2-(pyrrolidin-1-yl)ethyl)ami-no)benzamide] | higher cell killing potency than JC099 |
|  | higher potency in PARP1-trapping | less ATR inhibition potencies | COCCN(CCOc1ccccc1)CCOc1ccc(C(=O)NC2C/C(=C\c3ccc(F)c(F)c3)C(=O)/C(=C/c3ccc(F)c(F)c3)C2)cc1 (stereo not drawn) [JCS108, N-(3,5-Bis((E)-3,4-difluorobenzylidene)-4-oxocyclohexyl)-4-(2-((2-methoxyethyl)(2-phenoxyethyl)amino)ethoxy)benzamide] | higher cell killing potency than JC099 |
|  |  | greater ATR inhibition potential | COCCN(CCOc1ccc(C(=O)NC2C/C(=C\c3ccc(F)c(F)c3)C(=O)/C(=C/c3ccc(F)c(F)c3)C2)cc1)CC1CCCO1 (stereo not drawn) [JCS110, N-(3,5-Bis((E)-3,4-difluorobenzylidene)-4-oxocyclohexyl)-4-(2-((2-methoxyethyl)((tetrahydrofuran-2-yl)methyl)amino)ethoxy)benzamide] | moderate potency of cell killing, whereas less than JC099 |
|  |  | their potencies were close to JC099 | CCN(CC)CCOc1ccc(C(=O)NC2C/C(=C\c3ccc(F)c(F)c3)C(=O)/C(=C/c3ccc(F)c(F)c3)C2)cc1OC (stereo not drawn) [JCS111, N-(3,5-Bis((E)-3,4-difluorobenzylidene)-4-oxocyclohexyl)-4-(2-(diethylamino)ethoxy)-3-methoxy-benzamide] | moderate potency of cell killing, whereas less than JC099 |
|  | higher potency in PARP1-trapping | less ATR inhibition potencies | O=C1/C(=C/c2ccc(F)c(F)c2)CC(NC(=O)c2ccc(OCCN3CCCCC3)cn2)C/C1=C\c1ccc(F)c(F)c1 (stereo not drawn) [JCS132, N-(3,5-Bis((E)-3,4-difluorobenzylidene)-4-oxocyclohexyl)-5-(2-(piperidin-1-yl)ethoxy)picolinamide] | moderate potency of cell killing, whereas less than JC099 |
|  | higher potency in PARP1-trapping | their potencies were close to JC099 | O=C1/C(=C/c2ccc(F)c(F)c2)CC(NC(=O)c2ccc(OCCN3CC4CCCC4C3)cc2)C/C1=C\c1ccc(F)c(F)c1 (stereo not drawn) [JCS138, N-(3,5-Bis((E)-3,4-difluorobenzylidene)-4-oxocyclohexyl)-4-(2-(hexahydrocyclopenta[c]pyrrol-2(1H)-yl)ethoxy)benzamide] | moderate potency of cell killing, whereas less than JC099 |
|  |  | greater ATR inhibition potential | CCN1CCC[C@H]1CNc1ccc(C(=O)NC2C/C(=C\c3cc(F)c(F)c(F)c3)C(=O)/C(=C/c3cc(F)c(F)c(F)c3)C2)cc1 (stereo partly drawn) [JCS142, 4-((((S)-1-Ethylpyrrolidin-2-yl)methyl)amino)-N-(4-oxo-3,5-bis((E)-3,4,5-trifluorobenzylidene)-cyclohexyl)benzamide] | higher cell killing potency than JC099 |
|  |  | less ATR inhibition potencies | COCCN(CCOC)CCOc1ccc(C(=O)NC2C/C(=C\c3cc(F)c(F)c(F)c3)C(=O)/C(=C/c3cc(F)c(F)c(F)c3)C2)cc1 (stereo not drawn) [JCS143, 4-(2-(Bis(2-methoxyethyl)amino)ethoxy)-N-(4-oxo-3,5-bis((E)-3,4,5-trifluorobenzylidene)cyclo-hexyl)benzamide] | moderate potency of cell killing, whereas less than JC099 |
|  |  | greater ATR inhibition potential | CCN(CC)CCOc1ccc(C(=O)NC2C/C(=C\c3cc(F)c(F)c(OC)c3)C(=O)/C(=C/c3cc(F)c(F)c(OC)c3)C2)cc1 (stereo not drawn) [JCS152, N-(3,5-Bis((E)-3,4-difluoro-5-methoxybenzylidene)-4-oxocyclohexyl)-4-(2-(diethylamino)-ethoxy)benzamide] | higher cell killing potency than JC099 |
|  |  | their potencies were close to JC099 | CCN1CCC[C@H]1CNc1ccc(C(=O)NC2C/C(=C\c3cc(F)c(F)cc3F)C(=O)/C(=C/c3cc(F)c(F)cc3F)C2)cc1 (stereo partly drawn) [JCS154, 4-((((S)-1-Ethylpyrrolidin-2-yl)methyl)amino)-N-(4-oxo-3,5-bis((E)-2,4,5-trifluorobenzylidene)-cyclohexyl)benzamide] | moderate potency of cell killing, whereas less than JC099 |
|  |  | their potencies were close to JC099 | CCN(CC)CCOc1ccc(C(=O)NC2C/C(=C\c3cc(F)c(F)cc3F)C(=O)/C(=C/c3cc(F)c(F)cc3F)C2)cc1 (stereo not drawn) [JCS156, 4-(2-(Diethylamino)ethoxy)-N-(4-oxo-3,5-bis((E)-2,4,5-trifluorobenzylidene)cyclohexyl)benzamide] | moderate potency of cell killing, whereas less than JC099 |
|  | higher potency in PARP1-trapping | less ATR inhibition potencies | CCN(CC)CCOc1ccc(C(=O)NC2C/C(=C\c3ccc(F)c(F)c3F)C(=O)/C(=C/c3ccc(F)c(F)c3F)C2)cc1 (stereo not drawn) [JCS159, 4-(2-(Diethylamino)ethoxy)-N-(4-oxo-3,5-bis((E)-2,3,4-trifluorobenzylidene)cyclohexyl)benzamide] |  |
|  | their potencies were less than JC099 | greater ATR inhibition potential | CN1CCC[C@H]1CNc1ccc(C(=O)NC2C/C(=C\c3ccc(F)c(F)c3)C(=O)/C(=C/c3ccc(F)c(F)c3)C2)cc1 (stereo partly drawn) [JCS160, N-(3,5-Bis((E)-3,4-difluorobenzylidene)-4-oxocyclohexyl)-4-((((S)-1-methylpyrrolidin-2-yl)methyl)-amino)benzamide] |  |
|  |  |  | CN1CCC[C@H]1CNc1ncc(C(=O)NC2C/C(=C\c3ccc(F)c(F)c3)C(=O)/C(=C/c3ccc(F)c(F)c3)C2)cn1 (stereo partly drawn) [JCS161, N-(3,5-Bis((E)-3,4-difluorobenzylidene)-4-oxocyclohexyl)-2-((((S)-1-methylpyrrolidin-2-yl)methyl)-amino)pyrimidine-5-carboxamide] | higher cell killing potency than JC099 |
|  |  |  | CCCN(CCC)CCOc1ccc(C(=O)NC2C/C(=C\c3ccc(F)c(F)c3)C(=O)/C(=C/c3ccc(F)c(F)c3)C2)cc1 (stereo not drawn) [JCSO11] | higher cell killing potency than JC099 |

| Compound | PARP1 trapped on DNA lesions (PARP1; 0.3 μM) | PARP1-trapping potency relative to JC099 (PARP1 in the chromatin-bound fraction) (PARP1) | ATR inhibition potency relative to JC099 (OLA- or UV-induced phosphorylation of Rad17 and CHK1) (ATR) | cell killing potency relative to JC099 [1] |
| --- | --- | --- | --- | --- |
| O=C1/C(=C/c2ccc(F)c(F)c2)CC(NC(=O)c2ccc(C(=O)NCCN3CCCC3)cc2)C/C1=C\c1ccc(F)c(F)c1 (stereo not drawn) [JCS076, N1-(3,5-bis((E)-3,4-difluorobenzylidene)-4-oxocyclohexyl)-N4-(2-(pyrrolidin-1-yl)ethyl)terephthalamide] |  | increased the accumulation of PARP1 in the chromatin-bound fraction than JC099 | greater ATR inhibition potential | higher cell killing potency than JC099 |
